# Results taken from patent US4347319A, “Microbiological epoxidation process” (priority 1980, dated 1982).
# Like-named read-outs stand apart in the source and are kept apart here.
# How the values were obtained:
# Format in all cases: cell-based
# [1] = tested on: Methylomonas methanica (CRL M4P) NRRL B-11,205; assay: Oxidation by washed cell suspensions of methane-grown cells
# Method in brief: (§1)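 Methane-grown cells (30 °C, 2 days) washed and suspended in 0.15 M phosphate pH 7.0; 2 mg cells incubated at 30 °C, 300 rpm under substrate gas:oxygen 1:1 (10 μl for liquid substrates). Products sampled periodically and measured by flame-ionisation gas chromatography.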
# [2] = tested on: Methylobacter vinelandii (CRL M5Y) NRRL B-11,218; assay: as above; conditions: for Oxidative Conversion Rates: methane-grown washed cells, 30° C., methane to methanol, alkene to 1,2-epoxide
# Method in brief: as §1
# [3] = tested on: Methylomonas rosaceus (CRL M10P) NRRL B-11,212
# Experimental: The pH of the nutrient medium was adjusted to 7.0 by the addition of acid or base and 50 ml samples of the nutrient medium were charged into a plurality of 300 ml shaker flasks. The shaker flasks were inoculated with an inoculating loop of cells from an agar plate containing homogeneous colonies of the microorganisms on the plate (the purity of the isolates was confirmed by microscopic examination. The isolates had been maintained on agar plates under an atmosphere of methane and air having a 1:1 v/v gas ratio which had been transferred evey two weeks. The gaseous phase of the inoculated flasks was then replaced with a gas mixture comprised of methane and air having a ratio of 1:1 on a v/v basis. The inoculated flasks were sealed air tight and were incubated on a rotary shaker of orbital radius 2.5 cm at 250 rpm and at 30° C. for two days until turbidity in the medium had developed.
# The cells were harvested by centrifugation at 10,000×g. at 4° C. for 30 minutes. The cell pellet was washed twice with a 0.15 M phosphate buffer at a pH of 7.0 (containing 0.002 M MgCl2). The washed cells were then suspended in a 0.15 M phosphate buffer at pH 7.0.
# A 0.5 ml sample of each washed cell suspension (2 mg cells) was put into 10 ml vials at 4° C. which were sealed with a rubber cap. The gaseous phase of the vials was removed with vacuum and then was replaced with a gas mixture of the oxidative substrate (e.g., methane) and oxygen at a 1:1 v/v ratio. The vials were then incubated at 30 ° C. on a rotary shaker at 300 rpm. Samples of product (3 μl) were withdrawn periodically with a microsyringe and the products were analyzed by gas chromatography (ionization flame detector column).
# The newly discovered and isolated microorganism strains of the present invention were each grown aerobically in the presence of methane in the manner described above. The methane-grown microbial cells were then washed, recovered and put to use in oxidizing an oxidative substrate by the procedure described above except in the case of a liquid substrate 10 μl of the substrate were used.
# [4] = tested on: Methylomonas streptobacterium (CRL 17 PM3) NRRL B-11,208; assay: Oxidation by washed cell suspensions of methane-grown cells
# Method in brief: as §1
# [5] = tested on: Methylomonas agile (CRL 22 PM9) NRRL B-11,209; assay: as above
# Method in brief: as §1
# [6] = tested on: Methylobacter bovis (CRL 19 PM5) NRRL B-11,217; assay: as above
# Method in brief: as §1
# [7] = tested on: Methylomonas albus (CRL M8Y) NRRL B-11,207; assay: as above
# Method in brief: as §1
# [8] = tested on: Methylococcus minimus (CRL 24 PM12) NRRL B-11,220; assay: as above
# Method in brief: as §1
# [9] = tested on: Methylosinus sporium (CRL 16 PM2) NRRL B-11,203; assay: as above
# Method in brief: as §1
# [10] = tested on: Methylococcus capsulatus (CRL 25 PM13) NRRL B-11,221; assay: as above
# Method in brief: as §1
# [11] = tested on: Methylobacter chroococcum (CRL 23 PM8) NRRL B-11,215; assay: as above
# Method in brief: as §1
# [12] = tested on: Methylosinus trichosporium OB3b (NRRL B-11,196); assay: Oxidation by cell suspensions of methane-grown cells; conditions: methane-grown cell-suspension, pH 7.0
# [13] = tested on: Methylomonas rubrum (CRL 20 PM6) NRRL B-11,211; assay: Oxidation by washed cell suspensions of methane-grown cells; conditions: for Oxidative Conversion Rates: methane-grown washed cells, 30° C., methane to methanol, alkene to 1,2-epoxide
# Method in brief: as §1
# [14] = methane-grown cells, 2-butanol to 2-butanone
# [15] = methane-grown washed cells, 30° C., methane to methanol, alkene to 1,2-epoxide
smiles,measurement,setting,value
CCC(C)O (centres unmarked) [2-Butanol],"Conversion Rate to Ketone, 2 hrs.",[1],0.06 μmole/2 mg protein
same,"Conversion Rate to Ketone, 20 hrs.",[1],2 μmole/2 mg protein
same,"Conversion Rate to Ketone, 2 hrs.",[2]; [14],2 μmole/2 mg protein
same,"Conversion Rate to Ketone, 20 hrs.",[2]; [14],18 μmole/2 mg protein
C=CC=C [Butadiene],Oxidative Conversion Rates,[3]; [15],9.2 μmole/hr/mg protein
same,Oxidative Conversion Rates,[1]; [15],1.0 μmole/hr/mg protein
same,Oxidative Conversion Rates,[4]; [15],2.6 μmole/hr/mg protein
same,Oxidative Conversion Rates,[5]; [15],2.0 μmole/hr/mg protein
same,Oxidative Conversion Rates,[6]; [15],2.3 μmole/hr/mg protein
same,Oxidative Conversion Rates,[7]; [15],3.0 μmole/hr/mg protein
same,Oxidative Conversion Rates,[8]; [15],3.0 μmole/hr/mg protein
same,Oxidative Conversion Rates,[9]; [15],2.5 μmole/hr/mg protein
same,Oxidative Conversion Rates,[10]; [15],2.5 μmole/hr/mg protein
same,Oxidative Conversion Rates,[11]; [15],1.8 μmole/hr/mg protein
CCCC [Butane],Conversion Rate to 1-Butanol,[12]; 3° C.,0.3 μmoles/hr./mg./protein
same,Conversion Rate to 2-Butanol,[12]; 3° C.,0.4 μmoles/hr./mg./protein
same,Conversion Rate to 2-Butanone,[12]; 3° C.,0.1 μmoles/hr./mg./protein
same,Conversion Rate to n-butanol,[12]; 3° C.,0.1 μmoles/hr./mg./protein
same,Conversion Rate,[4],1.2 μmoles/hr/^5 mg. protein
C [Methane],Oxidative Conversion Rates,[3],7.3
same,Conversion Rate to Methanol,[12]; 3° C.,1.5 μmoles/hr./mg./protein
same,Oxidative Conversion Rates,[1],2.3
same,Oxidative Conversion Rates,[13],0.42 μmole/hr/mg protein
same,Oxidative Conversion Rates,[4],1.1
same,Oxidative Conversion Rates,[5],0.6
same,Oxidative Conversion Rates,[6],2.0
same,Oxidative Conversion Rates,[2],0.9 μmole/hr/mg protein
same,Oxidative Conversion Rates,[7],1.5
same,Oxidative Conversion Rates,[8],2.3
same,Oxidative Conversion Rates,[9],1.0
same,Oxidative Conversion Rates,[10],2.1
same,Oxidative Conversion Rates,[11],0.72
CCC [Propane],Conversion Rate to 2-Propanol,[12]; 3° C.,0.6 μmoles/hr./mg./protein
same,Conversion Rate to Acetone,[12]; 3° C.,0.2 μmoles/hr./mg./protein
same,Conversion Rate to Propanol,[12]; 3° C.,0.1 μmoles/hr./mg./protein
same,Conversion Rate to 1-Propanol,[12]; 30° C.,0.4 μmoles/hr./mg./protein
same,Conversion Rate to Ketone,"[13]; methane-grown cells, propane to acetone",3.5 μmoles/hr/mg Protein
same,Conversion Rate,"[4]; growth substrate Methane, n-alkane to secondary alcohol",1.6 μmoles/hr/^5 mg. protein
C=CC [Propylene],Oxidative Conversion Rates,[3],1.41
same,Oxidative Conversion Rates,[1]; [15],3.8 μmole/hr/mg protein
same,Oxidative Conversion Rates,[13],1.9 μmole/hr/mg protein
same,Oxidative Conversion Rates,[4]; [15],1.0 μmole/hr/mg protein
same,Oxidative Conversion Rates,[5]; [15],1.6 μmole/hr/mg protein
same,Oxidative Conversion Rates,[6]; [15],2.2 μmole/hr/mg protein
same,Oxidative Conversion Rates,[2],1.9 μmole/hr/mg protein
same,Oxidative Conversion Rates,[7]; [15],2.5 μmole/hr/mg protein
same,Oxidative Conversion Rates,[8]; [15],1.8 μmole/hr/mg protein
same,Oxidative Conversion Rates,[9]; [15],3.2 μmole/hr/mg protein
same,Oxidative Conversion Rates,[10]; [15],1.2 μmole/hr/mg protein
same,Oxidative Conversion Rates,[11]; [15],2.5 μmole/hr/mg protein
